Data as given in patent publication US20220411372A1, “SMALL-MOLECULE INHIBITORS FOR THE B-CATENIN/B-CELL LYMPHOMA 9 PROTEIN-PROTEIN INTERACTION” (H. Lee Moffitt Cancer Center and Research Institute, Inc., priority 2019, published 2022).

Biological target: T1, β-catenin/BCL9 PPI (Homo sapiens, UniProt P35222)
T1 construct: Full-length β-catenin (residues 1-781) were cloned into a pET-28b vector; made in house; host or cells: E. coli BL21 DE3 (β-catenin); BCL9 peptide synthesized by InnoPep Inc
T1 sequence (P35222 1-781): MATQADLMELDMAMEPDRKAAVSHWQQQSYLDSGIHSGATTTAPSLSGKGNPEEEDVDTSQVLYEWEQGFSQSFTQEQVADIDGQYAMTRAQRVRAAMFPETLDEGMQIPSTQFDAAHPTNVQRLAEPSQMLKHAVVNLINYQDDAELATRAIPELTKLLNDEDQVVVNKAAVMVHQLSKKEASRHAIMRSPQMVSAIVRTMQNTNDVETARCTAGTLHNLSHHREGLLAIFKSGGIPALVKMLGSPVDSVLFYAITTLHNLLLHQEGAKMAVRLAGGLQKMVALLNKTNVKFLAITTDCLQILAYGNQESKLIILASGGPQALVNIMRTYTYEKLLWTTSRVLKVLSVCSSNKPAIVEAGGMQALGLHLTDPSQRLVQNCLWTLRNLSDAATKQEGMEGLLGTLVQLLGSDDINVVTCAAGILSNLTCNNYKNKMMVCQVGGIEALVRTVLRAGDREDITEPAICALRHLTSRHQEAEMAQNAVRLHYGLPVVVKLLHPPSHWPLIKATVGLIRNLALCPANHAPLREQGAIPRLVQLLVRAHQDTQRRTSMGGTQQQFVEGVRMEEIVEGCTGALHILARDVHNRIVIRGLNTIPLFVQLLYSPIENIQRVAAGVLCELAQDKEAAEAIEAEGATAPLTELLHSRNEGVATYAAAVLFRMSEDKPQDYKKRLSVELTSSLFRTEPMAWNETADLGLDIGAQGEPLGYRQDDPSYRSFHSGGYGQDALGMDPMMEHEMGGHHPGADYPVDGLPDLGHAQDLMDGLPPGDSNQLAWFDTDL
Assay: AlphaScreen competitive inhibition assay of the β-catenin/BCL9 PPI
Assay type: binding
Settings: Table 8, inhibitors 82-92; read-out: Ki
Procedure, shortened: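 5 nM biotinylated BCL9 and 40 nM His6-β-catenin preincubated 30 min at 4° C in pH 7.4 Hepes buffer with 0.01% Triton X-100, 0.1% BSA, 1% DMSO; inhibitor added 1 h at 4° C, then 10 μg/mL donor/acceptor beads 1 h.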

For `O=C(c1cccc(N2CCC[C@@H](C(=O)N(Cc3ccc(-c4cn[nH]c4)cc3)C3CC3)C2)c1)N1CCNCC1` [Compound 85, (R)-4-(3-(3-((4-(1H-pyrazol-4-yl)benzyl)(cyclopropyl)carbamoyl)piperidin-1-yl)benzoyl)piperazin-1-ium chloride], which Ki is on record?
The Ki was less than 90 µM.

Which Ki does the source give for `O=C(C(Oc1cccc(N2CCC[C@@H](C(=O)N(Cc3ccc(-c4cn[nH]c4)cc3)C3CC3)C2)c1)c1ccccc1)N1CCNCC1` (stereo partly drawn) [Compound 86, 4-(2-(3-((R)-3-((4-(1H-pyrazol-4-yl)benzyl)(cyclopropyl)carbamoyl)piperidin-1-yl)phenoxy)-2-phenylacetyl)piperazin-1-ium chloride] here?
The Ki was less than 30 µM.

With `O=C(C(Cc1ccccc1)Oc1cccc(N2CCC[C@@H](C(=O)N(Cc3ccc(-c4cn[nH]c4)cc3)C3CC3)C2)c1)N1CCNCC1` (stereo partly drawn) [Compound 87, 4-(2-(3-((R)-3-((4-(1H-pyrazol-4-yl)benzyl)(cyclopropyl)carbamoyl)piperidin-1-yl)phenoxy)-3-phenylpropanoyl)piperazin-1-ium chloride] as the compound, how does the Ki read?
Its Ki is less than 90 µM.

`CC(C)(Oc1cccc(N2CCC[C@@H](C(=O)N(Cc3ccc(-c4cn[nH]c4)cc3OCCN)C3CC3)C2)c1)C(=O)N1CCNCC1` [Compound 89, (R)-4-(2-(3-(3-((2-(2-ammonioethoxy)-4-(1H-pyrazol-4-yl)benzyl)(cyclopropyl)carbamoyl)piperidin-1-yl)phenoxy)-2-methylpropanoyl)piperazin-1-ium chlorine] was tested. Which Ki did it give?
Its Ki is less than 90 µM.

`CC(C)c1ccc2c(c1)CCN(C(=O)[C@@H]1CCCN(c3cccc(OC(C)(C)C(=O)N4CCNCC4)c3)C1)C2` [Compound 90, (R)-4-(2-(3-(3-(6-isopropyl-1,2,3,4-tetrahydroisoquinoline-2-carbonyl)piperidin-1-yl)phenoxy)-2-methylpropanoyl)piperazin-1-ium chlorine] was tested. Which Ki did it give?
Its Ki is less than 30 µM.

How did the Ki turn out when `CC(C)(Oc1cccc(N2CCC[C@@H](C(=O)N3CCc4cc(-c5ccccc5)ccc4C3)C2)c1)C(=O)N1CCNCC1` [Compound 91, (R)-4-(2-methyl-2-(3-(3-(6-phenyl-1,2,3,4-tetrahydroisoquinoline-2-carbonyl)piperidin-1-yl)phenoxy)propanoyl)piperazin-1-ium chlorine] was run?
Its Ki is less than 5 µM.

Which Ki does the source give for `CC(C)(Oc1cccc(N2CCC[C@@H](C(=O)N3CCc4cc(-c5cn[nH]c5)ccc4C3)C2)c1)C(=O)N1CCNCC1` [Compound 92, (R)-4-(2-(3-(3-(6-(1H-pyrazol-4-yl)-1,2,3,4-tetrahydroisoquinoline-2-carbonyl)piperidin-1-yl)phenoxy)-2-methylpropanoyl)piperazin-1-ium chloride] here?
The Ki was less than 90 µM.

Same assay, conditions: Table 9, inhibitors 93-98, racemic; read-out: Ki

How did the Ki turn out when “(R)-2-(3-(3-(cyclopropyl(4-isopropylbenzyl)carbamoyl)piperidin-1-yl)phenoxy)-2-methylpropanoic acid [Compound 98]” was run?
The Ki was no more than 90 µM.

Same assay, conditions: Table 12, inhibitors 109-112; read-out: Ki

With `CCOc1cc(-c2cn[nH]c2)ccc1CN(C(=O)[C@@H]1CCCN(c2cccc(OC(C)(C)C(=O)N3CCNCC3)c2)C1)C1CC1` [Compound 109, (R)-4-(2-(3-(3-(Cyclopropyl(2-ethoxy-4-(1H-pyrazol-4-yl)benzyl)carbamoyl)piperidin-1-yl)phenoxy)-2-methylpropanoyl)piperazin-1-ium chloride] as the compound, how does the Ki read?
The Ki was no more than 30 µM.

For `CC(C)Oc1cc(-c2cn[nH]c2)ccc1CN(C(=O)[C@@H]1CCCN(c2cccc(OC(C)(C)C(=O)N3CCNCC3)c2)C1)C1CC1` [Compound 110, (R)-4-(2-(3-(3-(Cyclopropyl(2-isopropoxy-4-(1H-pyrazol-4-yl)benzyl)carbamoyl)piperidin-1-yl)phenoxy)-2-methylpropanoyl)piperazin-1-ium chloride], which Ki is on record?
The Ki was no more than 30 µM.

Which Ki does the source give for `CCCOc1cc(-c2cn[nH]c2)ccc1CN(C(=O)[C@@H]1CCCN(c2cccc(OC(C)(C)C(=O)N3CCNCC3)c2)C1)C1CC1` [Compound 111, (R)-4-(2-(3-(3-(Cyclopropyl(2-propoxy-4-(1H-pyrazol-4-yl)benzyl)carbamoyl)piperidin-1-yl)phenoxy)-2-methylpropanoyl)piperazin-1-ium chloride] here?
The Ki was no more than 30 µM.

For `CC(C)(Oc1cncc(N2CCC[C@@H](C(=O)N(Cc3ccc(-c4cn[nH]c4)cc3)C3CC3)C2)c1)C(=O)N1CCNCC1` [Compound 112, (R)-4-(2-((5-(3-((4-(1H-pyrazol-4-yl)benzyl)(cyclopropyl)carbamoyl)piperidin-1-yl)pyridin-3-yl)oxy)-2-methylpropanoyl)piperazin-1-ium chloride], which Ki is on record?
The Ki was no more than 30 µM.
